# From ChEMBL document CHEMBL2169752, “Kallikrein protease activated receptor (PAR) axis: an attractive target for drug development” (J Med Chem, 2012)
# Numbered stars: 1 amine (or outer) side, 2 acyl side, 3 side chain; on linkers, the order of the positions; unused ones are H or OH. Square brackets hold non-standard residues; d marks the D form. Peptide text beside a SMILES is read from it. * marks the point of attachment. EDDnp = O=[N+]([O-])c1ccc(NCCN*)c([N+](=O)[O-])c1; X1 = NCC1CCC(C[C@H](N[*:1])C(=O)[*:2])CC1; 2Abz = Nc1ccccc1C(=O)O
# Experiments:
# [1] = biological target: T1, Prostate-specific antigen (Homo sapiens, UniProt P07288); assay: Inhibition of KLK3
# T1 sequence (P07288 whole entry): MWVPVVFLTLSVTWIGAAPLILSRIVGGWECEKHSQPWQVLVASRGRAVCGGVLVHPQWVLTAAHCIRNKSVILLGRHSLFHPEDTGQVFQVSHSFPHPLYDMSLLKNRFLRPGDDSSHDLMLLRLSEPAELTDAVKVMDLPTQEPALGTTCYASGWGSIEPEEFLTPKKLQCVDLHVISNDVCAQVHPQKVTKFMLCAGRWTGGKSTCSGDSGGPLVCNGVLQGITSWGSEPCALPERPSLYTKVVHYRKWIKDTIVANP
# [2] = biological target: T2, Kallikrein-1 (Homo sapiens, UniProt P06870); assay: Inhibition of human KLK1
# T2 sequence (P06870 whole entry): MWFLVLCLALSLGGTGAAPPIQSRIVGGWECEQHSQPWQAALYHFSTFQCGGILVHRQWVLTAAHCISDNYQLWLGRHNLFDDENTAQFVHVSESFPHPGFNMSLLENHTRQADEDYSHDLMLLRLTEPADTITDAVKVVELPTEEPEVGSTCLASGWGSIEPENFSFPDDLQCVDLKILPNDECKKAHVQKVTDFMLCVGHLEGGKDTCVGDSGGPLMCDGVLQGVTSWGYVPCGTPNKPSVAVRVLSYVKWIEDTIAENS
# [3] = biological target: T2, Kallikrein-1; assay: Inhibition of human KLK1 using Pro-Phe-Arg-MCA as substrate for 2 mins by spectrophotometric analysis
Ki [1],Ki [2],SMILES,further results
500 nM,,COc1ccc(C(=O)n2nc(-c3cccnc3)nc2C)cc1OC,
300 nM,,Cc1c(-c2nc3ccccc3c(=O)o2)cccc1[N+](=O)[O-],
,50 nM,N=C(N)NCCC[C@H](NC(=O)[C@H](CO)NC(=O)[C@H](CC1CCC(CN)CC1)NC(=O)[C@H](Cc1ccccc1)NC(=O)c1ccccc1N)C(=O)N[C@@H](CCC(N)=O)C(=O)NCCNc1ccc([N+](=O)[O-])cc1[N+](=O)[O-] (stereo not given in full) (H-[2Abz]F[X1]SRQ-EDDnp),
,110 nM,NC(=O)[C@H](CCCN=C(N)N)NC(=O)[C@H](CO)NC(=O)[C@H](CC1CCC(N)CC1)NC(=O)Cc1ccccc1 (mixture of isomers),
,,CC(=O)N[C@H](CCCCN)C(=O)N[C@@H](Cc1ccccc1)C(=O)N[C@@H](Cc1ccccc1)C(=O)N1CCC[C@H]1C(=O)N[C@@H](CC(C)C)C(=O)N[C@@H](CCC(=O)O)C(N)=O,Ki [3]: 8 nM
